Values joined by “and” are separate entries in the source; they are usually repeats but may differ in a detail not shown here. Identical values can stand only once. Like-named read-outs stand apart in the source and are kept apart here.
How the values were obtained:
human hepatocytes = system: human hepatocytes; parameters: method as in Crizer et al. [59]; details: ref Crizer et al. [59]; cited from earlier work
[1] = Liver dosimetry of PFHxSA and PFHxS by targeted LC/MS/MS; format: in vivo, rat; details: for concentration at 24 h: Sprague Dawley (Crl:CD(SD)), rat, liver, oral
Description: The plasma and liver samples for this investigation were provided by Mutlu et al.. The study design, including detailed descriptions of animal handling, procedures for dosing, clinical observations, termination, and collection of tissues, is reported elsewhere and is consistent with the ARRIVE guidelines. Briefly, male and female Sprague Dawley (SD) rats (Crl:CD(SD)) (n = 48/sex, 96 total) were purchased from Charles River Laboratory (Raleigh, NC, USA) and allowed to acclimate for ≥5 days before initial dosing. Rats were 8–10 weeks old at the time of exposure. PFHxSA dosing solutions in corn oil were prepared on Day 0 and used over the course of the study. Rats of both sexes (n = 5/sex, dose, and time point, plus eight vehicle controls per sex) were dosed by oral gavage (5 mL/kg body weight) once daily for five days. […] The formulation concentrations decreased from 100 mg/kg/day at half-log10 intervals until the lowest dose level, which was a full log10 interval below the next higher dose, giving eight dose levels (0.01 to 100 mg/kg/day or 0.025 µmol/kg/day to 250 µmol/kg/day) in addition to vehicle controls. Doses were administered in randomized order within ± 1 h on each day of dosing. […] Rats were euthanized 24 h after the last dose. Blood was collected via cardiac puncture with tripotassium ethylene diamine tetraacetic acid (K3EDTA) as an anti-coagulant and centrifuged to collect cell-free plasma. Liver was collected and flash-frozen in liquid nitrogen. Liver, plasma, and dosing formulation samples were frozen at the USEPA Center for Computational Toxicology and Exposure (CCTE), Durham, NC, USA. Tissue samples (plasma and liver, n = 96 each) were stored at ≤−70 °C prior to extraction; dosing formulation samples (n = 9) were stored at −20 °C.
Detailed information on solvents and standards used for targeted LC/MS/MS of PFHxSA and PFHxS can be found in SI Text S1 and SI Table S1. Plasma and liver preparations were modified from Conley et al.. Briefly, aliquots of plasma (25 µL) and liver (~10 mg) were spiked with PFOSA as an internal standard, as no isotope-labeled PFHxSA was available. Sample batches included up to 96 samples along with an MB, CCV, and LCS for QC. Commercial plasma (mixed-sex SD rat plasma) and liver (mixed-sex SD rat) were obtained from BioIVT (Westbury, NY, USA). Cold acetonitrile (ACN) with 0.1 M formic acid was used to precipitate proteins. Liver and plasma samples were prepared similarly, except that the livers were homogenized after solvent addition. Plasma samples were vortexed to mix before being chilled at −20 °C, after which samples were centrifuged at 5 °C and 10,000× g. Liver samples were chilled at −80 °C, then homogenized using an Omni International (Kennesaw, GA, USA) Bead Ruptor 24. Liver homogenates were centrifuged at 26,000× g and 5 °C. Supernatants from the extraction of both matrices were removed and stored at −20 °C until analysis. Refer to SI Text S4 for additional experimental details and information on calibration and QC parameters for quantitation of PFHxSA.
Targeted LC/MS/MS of PFHxSA was performed on a Sciex 4000 QTRAP LC/MS/MS system operated in negative ESI mode with MRM scanning. A Restek (Bellefonte, PA, USA) Raptor Polar X (100 mm × 2 mm, 2.7 µm) column was used for liquid chromatography. Isocratic elution occurred over 10 min with a 30:70 ratio of mobile phase A (10 mM ammonium formate): mobile phase B (60:40 ACN: methanol). Both mobile phases included 0.05% formic acid. The LOQs for PFHxSA were 0.100 µM in plasma and 0.351 µM in liver. Additional details of the instrument method parameters for targeted analysis of PFHxSA are provided in SI Table S5. The MRM transitions for the PFHxSA method are provided in SI Table S6. […]

NS(=O)(=O)C(F)(F)C(F)(F)C(F)(F)C(F)(F)C(F)(F)C(F)(F)F [PFHxSA, Perfluorohexanesulfonamide]
Clhep (hepatic clearance) (human hepatocytes): 0 ^2 L/h
PFHxSA Female Liver Conc. (wet weight) ([1]; PFHxSA 0.1 mg/kg/day oral 5 days, female, individual rats): 0.491 µM and 0.599 µM and 0.338 µM and 0.434 µM
PFHxSA Male Liver Conc. (wet weight) ([1]; PFHxSA 0.1 mg/kg/day oral 5 days, male, individual rats): 0.191 ng/mg and 0.0842 ng/mg and 0.479 µM and 0.211 µM and 0.156 ng/mg and 0.391 µM and 0.746 µM and 0.503 µM and 0.298 ng/mg and 0.201 ng/mg
PFHxSA Female Liver Conc. (wet weight) ([1]; PFHxSA 0.3 mg/kg/day oral 5 days, female, individual rats): 1.47 µM and 1.96 µM and 1.26 µM and 1.74 µM
PFHxSA Male Liver Conc. (wet weight) ([1]; PFHxSA 0.3 mg/kg/day oral 5 days, male, individual rats): 0.462 ng/mg and 0.399 ng/mg and 1.26 µM and 0.604 µM and 1.30 µM and 1.16 µM and 1.00 µM and 0.503 ng/mg
PFHxSA Female Liver Conc. (wet weight) ([1]; PFHxSA 1 mg/kg/day oral 5 days, female, individual rats): 2.91 µM and 2.52 µM and 4.17 µM and 4.76 µM and 6.64 µM
PFHxSA Male Liver Conc. (wet weight) ([1]; PFHxSA 1 mg/kg/day oral 5 days, male, individual rats): 0.846 ng/mg and 1.00 ng/mg and 1.09 ng/mg and 1.18 ng/mg and 2.12 µM and 2.51 µM and 2.73 µM and 2.97 µM
PFHxSA Female Liver Conc. (wet weight) ([1]; PFHxSA 3 mg/kg/day oral 5 days, female, individual rats): 7.94 µM and 4.86 µM and 6.40 µM and 9.55 µM and 10.8 µM
PFHxSA Male Liver Conc. (wet weight) ([1]; PFHxSA 3 mg/kg/day oral 5 days, male, individual rats): 1.92 ng/mg and 1.86 ng/mg and 1.63 ng/mg and 2.14 ng/mg and 4.81 µM and 4.67 µM and 4.08 µM and 5.36 µM
PFHxSA Female Liver Conc. (wet weight) ([1]; PFHxSA 10 mg/kg/day oral 5 days, female, individual rats): 6.97 µM and 8.65 µM and 7.58 µM and 9.86 µM
PFHxSA Male Liver Conc. (wet weight) ([1]; PFHxSA 10 mg/kg/day oral 5 days, male, individual rats): 5.65 ng/mg and 3.24 ng/mg and 4.53 ng/mg and 4.26 ng/mg and 14.2 µM and 8.13 µM and 11.4 µM and 10.7 µM
PFHxSA Female Liver Conc. (wet weight) ([1]; PFHxSA 30 mg/kg/day oral 5 days, female, individual rats): 15.8 ng/mg and 7.72 ng/mg and 10.1 ng/mg and 8.88 ng/mg and 23.9 µM and 39.6 µM and 19.4 µM and 25.2 µM and 22.3 µM
PFHxSA Male Liver Conc. (wet weight) ([1]; PFHxSA 30 mg/kg/day oral 5 days, male, individual rats): 4.86 ng/mg and 3.36 ng/mg and 4.47 ng/mg and 6.25 ng/mg and 12.2 µM and 8.43 µM and 11.2 µM and 15.7 µM
PFHxSA Female Liver Conc. (wet weight) ([1]; PFHxSA 100 mg/kg/day oral 5 days, female, individual rats): 20.7 ng/mg and 12.3 ng/mg and 37.7 ng/mg and 20.9 ng/mg and 16.1 ng/mg and 52.0 µM and 30.8 µM and 94.6 µM and 52.3 µM and 40.3 µM
PFHxSA Male Liver Conc. (wet weight) ([1]; PFHxSA 100 mg/kg/day oral 5 days, male, individual rats): 14.9 ng/mg and 19.0 ng/mg and 6.87 ng/mg and 4.89 ng/mg and 5.61 ng/mg and 37.4 µM and 47.6 µM and 17.2 µM and 12.3 µM
concentration at 24 h ([1]; female, 0.1 mg/kg/day, PFHxSA 0.1 mg/kg/day oral 5 days, female, individual rats, read-out: PFHxSA Female Liver Conc. (wet weight)): 436 nM and 174 ng/g
concentration at 24 h ([1]; female, 0.3 mg/kg/day, PFHxSA 0.3 mg/kg/day oral 5 days, female rats, mean ± SD, read-out: PFHxSA Female Liver Conc.): 1.69 ± 0.32 µM
concentration at 24 h ([1]; female, 0.3 mg/kg/day, PFHxSA 0.3 mg/kg/day oral 5 days, female, individual rats, read-out: PFHxSA Female Liver Conc. (wet weight)): 2.03 µM and 811 ng/g
concentration at 24 h ([1]; female, 1 mg/kg/day, PFHxSA 1 mg/kg/day oral 5 days, female rats, mean ± SD, read-out: PFHxSA Female Liver Conc.): 4.2 ± 1.6 µM
concentration at 24 h ([1]; female, 3 mg/kg/day, PFHxSA 3 mg/kg/day oral 5 days, female rats, mean ± SD, read-out: PFHxSA Female Liver Conc.): 7.91 ± 2.4 µM
concentration at 24 h ([1]; female, 10 mg/kg/day, PFHxSA 10 mg/kg/day oral 5 days, female rats, mean ± SD, read-out: PFHxSA Female Liver Conc.): 8.41 ± 1.1 µM
concentration at 24 h ([1]; female, 10 mg/kg/day, PFHxSA 10 mg/kg/day oral 5 days, female, individual rats, read-out: PFHxSA Female Liver Conc. (wet weight)): 8.98 µM and 3580 ng/g
concentration at 24 h ([1]; female, 30 mg/kg/day, PFHxSA 30 mg/kg/day oral 5 days, female rats, mean ± SD, read-out: PFHxSA Female Liver Conc.): 26.1 ± 7.9 µM
concentration at 24 h ([1]; male, 0.3 mg/kg/day, PFHxSA 0.3 mg/kg/day oral 5 days, male rats, mean ± SD, read-out: PFHxSA Male Liver Conc.): 1.06 ± 0.28 µM
concentration at 24 h ([1]; male, 1 mg/kg/day, PFHxSA 1 mg/kg/day oral 5 days, male rats, mean ± SD, read-out: PFHxSA Male Liver Conc.): 2.48 ± 0.39 µM
concentration at 24 h ([1]; male, 1 mg/kg/day, PFHxSA 1 mg/kg/day oral 5 days, male, individual rats, read-out: PFHxSA Male Liver Conc. (wet weight)): 821 ng/g and 2.06 µM
concentration at 24 h ([1]; male, 3 mg/kg/day, PFHxSA 3 mg/kg/day oral 5 days, male rats, mean ± SD, read-out: PFHxSA Male Liver Conc.): 4.67 ± 0.47 µM
concentration at 24 h ([1]; male, 3 mg/kg/day, PFHxSA 3 mg/kg/day oral 5 days, male, individual rats, read-out: PFHxSA Male Liver Conc. (wet weight)): 1780 ng/g and 4.45 µM
concentration at 24 h ([1]; male, 10 mg/kg/day, PFHxSA 10 mg/kg/day oral 5 days, male rats, mean ± SD, read-out: PFHxSA Male Liver Conc.): 10.6 ± 2.5 µM

— PMC12737022, “Evaluations of Sex Differences in Dosimetry in Rats Following Perfluorohexanesulfonamide (PFHxSA) Oral Exposure” (Toxics, 2025)
